This note sets out measurements from patent US20140073634A1 (Institute For Applied Cancer Science/The University of …, priority 2012, published 2014).

Usually IC50 stands for the concentration needed to halve the response being measured.

Molecules are shown by their SMILES.

The subject of the first test is 293T-HRE-GFP-luc cells. Put plainly: Cell-based reporter assay for IC50 determinations (HRE-luciferase, hypoxia). The settings on record: 6 h, 6 hrs hypoxia (1% O2), luminescence. Summed up:
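293T-HRE-GFP-luc cells were pre-incubated with serially diluted compounds for 30 min under normoxia, then held 6 hrs in hypoxia (1% O2, 37° C). HRE-driven luciferase read by Steadylite Plus luminescence; IC50 from four-parameter logistic fit.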
A general note: A reporter such as luciferase makes a cellular process visible.
Regarding `CS(=O)(=O)C1CCN(c2cccc(Cn3nc(-c4nc(-c5ccc(OC(F)F)cc5)no4)ccc3=O)c2)CC1` [Example 82, 6-(3-(4-(Difluoromethoxy)phenyl)-1,2,4-oxadiazol-5-yl)-2-(3-(4-(methylsulfonyl)piperidin-1-yl)benzyl)pyridazin-3(2H)-one], the IC50 was less than 100 nM.
Same read-out and setting: the result for `COCCOc1cccc(Cn2cc(-c3noc(-c4cnc(N(C)C)nc4)n3)ccc2=O)c1` [Example 232, 5-{5-[2-(dimethylamino)pyrimidin-5-yl]-1,2,4-oxadiazol-3-yl}-1-{[3-(2-methoxyethoxy)phenyl]methyl}-1,2-dihydropyridin-2-one] reads less than 100 nM.
On the same count and under the same terms, the value for `COCCOc1cccc(Cn2cc(-c3nnc(-c4ccc(OC(F)F)cc4)o3)ccc2=O)c1` [Example 257, 5-{5-[4-(difluoromethoxy)phenyl]-1,3,4-oxadiazol-2-yl}-1-{[3-(2-methoxyethoxy)phenyl]methyl}-1,2-dihydropyridin-2-one] was 100 to 1000 nM; that for `CC(C)(C(=O)O)c1cccc(Cn2cc(-c3nc(-c4ccc(OC(F)(F)F)cc4)no3)ccc2=O)c1` [Example 36, 2-Methyl-2-{3-[(2-oxo-5-{3-[4-(trifluoromethoxy)phenyl]-1,2,4-oxadiazol-5-yl}-1,2-dihydropyridin-1-yl)methyl]phenyl}propanoic acid] was 100 to 1000 nM.
Turning to `COc1cccc(Cn2cc(-c3nc(-c4ccc(OC(F)(F)F)cc4)no3)ccc2=O)c1` [Example 121, 1-(3-methoxybenzyl)-5-(3-(4-(trifluoromethoxy)phenyl)-1,2,4-oxadiazol-5-yl)pyridin-2(1H)-one], the IC50 was less than 100 nM.
Compound `O=c1ccc(-c2nc(-c3ccc(OC(F)(F)F)cc3)no2)cn1Cc1cccc(N2CCOCC2)c1` [Example 144, 1-{[3-(morpholin-4-yl)phenyl]methyl}-5-{3-[4-(trifluoromethoxy)phenyl]-1,2,4-oxadiazol-5-yl}-1,2-dihydropyridin-2-one] showed an IC50 of less than 100 nM.
Turning to `Cc1ccc(-c2nnc(-c3ccc(OC(F)(F)F)cc3)o2)c(=O)n1Cc1ccnc(N2CCOCC2)c1` [Example 27, 6-Methyl-1-((2-morpholinopyridin-4-yl)methyl)-3-(5-(4-(trifluoromethoxy)phenyl)-1,3,4-oxadiazol-2-yl)pyridin-2(1H)-one], the IC50 lay in the range of 100 to 1000 nM.
Turning to `CN(C)S(=O)(=O)c1cccc(Cn2cc(-c3nc(-c4ccc(OC(F)(F)F)cc4)no3)ccc2=O)c1` [Example 35, N,N-Dimethyl-3-[(2-oxo-5-{3-[4-(trifluoromethoxy)phenyl]-1,2,4-oxadiazol-5-yl}-1,2-dihydropyridin-1-yl)methyl]benzene-1-sulfonamide], the IC50 was less than 100 nM.
The same measure, in the same setting: the result for `Cc1cccc(Cn2cc(-c3nc(-c4ccc(OC(F)(F)F)cc4)no3)ccc2=O)c1` [Example 152, 1-[(3-methylphenyl)methyl]-5-{3-[4-(trifluoromethoxy)phenyl]-1,2,4-oxadiazo-5-yl}-1,2-dihydropyridin-2-one] reads less than 100 nM; that for `CN1CCN(c2cccc(Cn3cc(-c4noc(-c5ccc(OC(F)F)cc5)n4)ccc3=O)c2)CC1` [Example 189, 5-{5-[4-(difluoromethoxy)phenyl]-1,2,4-oxadiazol-3-yl}-1-{[3-(4-methylpiperazin-1-yl)phenyl]methyl}-1,2-dihydropyridin-2-one], less than 100 nM.
In the case of `O=C(c1cccc(Cn2nc(-c3nc(-c4ccc(OC(F)(F)F)cc4)no3)ccc2=O)c1)N1CCOCC1` [Example 110, 2-(3-(morpholine-4-carbonyl)benzyl)-6-(3-(4-(trifluoromethoxy)phenyl)-1,2,4-oxadiazol-5-yl)pyridazin-3(2H)-one], the half-maximal inhibitory concentration (IC50) was in the range of 100 to 1000 nM.
`COCCOc1cccc(Cn2cc(-c3noc(-c4ccc(C)c(C)c4)n3)ccc2=O)c1` [Example 222, 5-[5-(3,4-dimethylphenyl)-1,2,4-oxadiazol-3-yl]-1-{[3-(2-methoxyethoxy)phenyl]methyl}-1,2-dihydropyridin-2-one] gave an IC50 of 100 to 1000 nM.
The same measure, in the same setting: the result for `CN1CCN(c2cc(Cn3cc(-c4cc(-c5ccc(OC(F)(F)F)cc5)on4)ccc3=O)ccn2)CC1` [Example 97a, 1-((2-(4-Methylpiperazin-1-yl)pyridin-4-yl)methyl)-5-(5-(4-(trifluoromethoxy)phenyl)isoxazol-3-yl)pyridin-2(1H)-one] reads less than 100 nM; that for `COCCOc1cccc(Cn2cc(-c3noc(-c4ccc(C5CCSCC5)cc4)n3)ccc2=O)c1` [Example 75, 1-(3-(2-Methoxyethoxy)benzyl)-5-(5-(4-(tetrahydro-2H-thiopyran-4-yl)phenyl)-1,2,4-oxadiazol-3-yl)pyridin-2(1H)-one], less than 100 nM; that for `CCCS(=O)(=O)c1cccc(Cn2cc(-c3nc(-c4ccc(OC(F)(F)F)cc4)no3)ccc2=O)c1` [Example 37, 1-{[3-(propane-1-sulfonyl)phenyl]methyl}-5-{3-[4-(trifluoromethoxy)phenyl]-1,2,4-oxadiazol-5-yl}-1,2-dihydropyridin-2-one], less than 100 nM.
Compound `C=Cc1cccc(Cn2cc(-c3nc(-c4ccc(OC(F)(F)F)cc4)no3)ccc2=O)c1` [Example 52, 5-(3-(4-(Trifluoromethoxy)phenyl)-1,2,4-oxadiazol-5-yl)-1-(3-vinylbenzyl)pyridin-2(1H)-one] displayed an IC50 of less than 100 nM.
On the same count and under the same terms, the result for `CC(C)(O)c1cccc(Cn2cc(-c3nc(-c4ccc(OC(F)(F)F)cc4)no3)ccc2=O)c1` [Example 39, 1-{[3-(2-Hydroxypropan-2-yl)phenyl]methyl}-5-{3-[4-(trifluoromethoxy)phenyl]-1,2,4-oxadiazol-5-yl}-1,2-dihydropyridin-2-one] reads less than 100 nM; that for `CN1CCN(c2cccc(Cn3nc(-c4nc(-c5ccc(OC(F)(F)F)cc5)no4)ccc3=O)c2)CC1` [Example 13, 2-(3-(4-Methylpiperazin-1-yl)benzyl)-6-(3-(4-(trifluoromethoxy)phenyl)-1,2,4-oxadiazol-5-yl)pyridazin-3(2H)-one], less than 100 nM.
`COCCOc1cccc(Cn2cc(-c3noc(-c4ccc(NC(C)=O)cc4)n3)ccc2=O)c1` [Example 226, N-{4-[3-(1-{[3-(2-methoxyethoxy)phenyl]methyl}-6-oxo-1,6-dihydropyridin-3-yl)-1,2,4-oxadiazol-5-yl]phenyl}acetamide] had an IC50 of 100 to 1000 nM.
Consider `O=C(CO)N1CCN(c2cccc(Cn3cc(-c4nc(-c5ccc(OC(F)(F)F)cc5)no4)ccc3=O)c2)CC1` [Example 60], for which the IC50 is less than 100 nM.
As for `O=c1ccc(-c2nc(-c3ccc(OC(F)(F)F)cc3)no2)cn1Cc1ccc(F)c(N2CCOCC2)c1` [Example 138, 1-{[4-fluoro-3-(morpholin-4-yl)phenyl]methyl}-5-{3-[4-(trifluoromethoxy)phenyl]-1,2,4-oxadiazol-5-yl}-1,2-dihydropyridin-2-one], the IC50 is less than 100 nM.
Same read-out and setting: the result for `CNC(=O)c1cc(Cn2nc(-c3nc(-c4ccc(OC(F)(F)F)cc4)no3)ccc2=O)ccc1F` [Example 140, 2-fluoro-N-methyl-5-[(6-oxo-3-{3-[4-(trifluoromethoxy)phenyl]-1,2,4-oxadiazol-5-yl}-1,6-dihydropyridazin-1-yl)methyl]benzamide] reads less than 100 nM; that for `COCCOc1cccc(Cn2cc(-c3noc(-c4ccc(S(=O)(=O)NC(C)C)cc4)n3)ccc2=O)c1` [Example 217, 4-[3-(1-{[3-(2-methoxyethoxy)phenyl]methyl}-6-oxo-1,6-dihydropyridin-3-yl)-1,2,4-oxadiazol-5-yl}-N-(propan-2-yl)benzene-1-sulfonamide], 100 to 1000 nM; that for `CN1CCN(c2cc(Cn3cc(-c4nnc(-c5ccc(OC(F)(F)F)cc5)o4)ccc3=O)ccn2)CC1` [Example 101, 1-Methyl-4-(4-((2-oxo-5-(5-(4-(trifluoromethoxy)phenyl)-1,3,4-oxadiazol-2-yl)pyridin-1(2H)-yl)methyl)pyridin-2-yl)piperazin-1-ium 2,2,2-trifluoroacetate], 100 to 1000 nM.
`O=c1ccc(-c2nc(-c3ccc(OC(F)(F)F)cc3)no2)cn1Cc1ccnc(N2CCC(O)CC2)c1` [Example 163, 1-{[2-(4-hydroxypiperidin-1-yl)pyridin-4-yl]methyl}-5-{3-[4-(trifluoromethoxy)phenyl]-1,2,4-oxadiazol-5-yl}-1,2-dihydropyridin-2-one] showed an IC50 of less than 100 nM.
Compound `CS(=O)(=O)C1CCN(c2cccc(Cn3cc(-c4cc(-c5ccc(OC(F)(F)F)cc5)no4)ccc3=O)c2)CC1` [Example 98, 1-(3-(4-(Methylsulfonyl)piperidin-1-yl)benzyl)-5-(3-(4-(trifluoromethoxy)phenyl)isoxazol-5-yl)pyridin-2(1H)-one] gave an IC50 of less than 100 nM.
Compound `COCCOc1cccc(Cn2cc(-c3noc(-c4ccc(CO)cc4)n3)ccc2=O)c1` [Example 220, 5-{5-[4-(hydroxymethyl)phenyl]-1,2,4-oxadiazol-3-yl}-1-{[3-(2-methoxyethoxy)phenyl]methyl}-1,2-dihydropyridin-2-one] showed a concentration for half-maximal inhibition (IC50) of 100 to 1000 nM.
The same measure, in the same setting: the result for `COCCOc1cccc(Cn2cc(-c3noc(-c4cnc(N5CCC(C)(C)CC5)nc4)n3)ccc2=O)c1` [Example 243, 5-{5-[2-(4,4-dimethylpiperidin-1-yl)pyrimidin-5-yl]-1,2,4-oxadiazol-3-yl}-1-{[3-(2-methoxyethoxy)phenyl]methyl}-1,2-dihydropyridin-2-one] reads less than 100 nM; that for `COCCOc1cccc(Cn2cc(-c3noc(-c4cnc(OC(C)C)nc4)n3)ccc2=O)c1` [Example 241, 1-{[3-(2-methoxyethoxy)phenyl]methyl}-5-{5-[2-(propan-2-yloxy)pyrimidin-5-yl]-1,2,4-oxadiazol-3-yl}-1,2-dihydropyridin-2-one], less than 100 nM.

The test is the same for the next values; noted with them: 6 hrs hypoxia (1% O2), luminescence.
Take `O=c1ccc(-c2nc(-c3ccc(OC(F)(F)F)cc3)no2)cn1Cc1cccc(C(O)CO)c1` (single isomer, unassigned) [Example 53b, (1S)- or (1R)-1-(3-(1,2-dihydroxyethyl)benzyl)-5-(3-(4-(trifluoromethoxy)phenyl)-1,2,4-oxadiazol-5-yl)pyridin-2(1H)-one]: the 50% inhibitory concentration (IC50) was less than 100 nM.
